Measured values reported in patent US20220296866A1, “METHODS, DEVICES AND COMPOSITIONS FOR LOCAL DELIVERY” (POLY-MED, INC., priority 2019, published 2022).

How the values were obtained:
[1] = In vitro drug release evaluation of Mitomycin C-eluting devices in artificial urine; assay type: physicochemical
Procedure: Devices prepared from earlier examples were characterized for drug release profile in artificial urine to predict in vivo behavior in a human bladder. First, artificial urine was prepared according to ASTM F1828, with a modified buffer. Drug-containing samples were placed in individual 20 mL glass vials and 15 mL artificial urine added to cover the sample. This volume of artificial urine was sufficiently above the Mitomycin C solubility limit for each sample so as not to interfere with release analysis. Filled glass vials were placed in a 37° C. incubator on a 1 Hz orbital bed. As predetermined time points, a total changeover of artificial urine was performed, with the exchanged urine analyzed by HPLC to determine total release of Mitomycin C per time period.
HPLC analysis was performed using a Waters ACQUITY ArcHPLC with C18 column using an isocratic method with 71:29 water:methanol mobile phase. Peaks were compared against a standard curve to determine concentration in the sample, and calculated to total percentage release based on fluid volume and loading of Mitomycin C in the sample. […] A secondary release of drug is anticipated as the OC9 and SVG12 materials experience degradation.

[2] = Stability of Mitomycin C in PDLG film (colour change); assay type: physicochemical; settings: evidenced by a change in color from purple to tan
Procedure: SVG12 (Poly-Med, Inc.) and PDLG (Purasorb PDLG 7507, Corbion) were separately dissolved in chloroform, each at 15% concentration (wt/vol %). Solutions were divided to create different drug-loading solutions according to the associated table. In short, lidocaine (Sigma Aldrich) was added to a solution of SVG12 at a concentration of 134 mg drug per 1 gram of SVG12. Dexamethasone was added to a separate solution of PDLG at a concentration of 29 mg drug per 1 gram of PDLG. Mitomycin C was added to a separate solution of PDLG at a concentration of 6.8 mg drug per 1 gram of PDLG. All solutions were held at room temperature on a roller until completely dissolved. The solutions were cast into thin films using a 25-mil film casting blade and allowed to dry.
Drug-loaded films were cut into rectangles and placed on SVG12-only films. In the case of the dexamethasone- and lidocaine-loaded sample, the cut films were stacked one on top of the other. In the case of mytomycin C-loaded films, 4 drug-loaded films were stacked one on top of the other to increase total delivery payload. On top of the drug-eluting film, a separate SVG12-only film was added which was larger in size. Degradable medical devices and/or compositions were clamped between rubber films between glass plates, clamped to apply pressure, and heated at 50° C. for 3 hours to create a seal between the encapsulation films. […]

CO[C@@]12[C@H](COC(N)=O)C3=C(C(=O)C(C)=C(N)C3=O)N1C[C@@H]1N[C@@H]12 [Mitomycin C]
Mitomycin C release compared with the free gel ([1]; OC9/PEG 400 gel placed in the core of the stent, 37° C.): Further attenuation | Mitomycin C release profile after the initial release ([1]; gel containing 2 parts OC9 and 1 part PEG 400, 37° C., after about 3 days): extended release plateau | total percentage release of Mitomycin C ([1]; gel containing 2 parts OC9 and 1 part PEG 400, 37° C., over about 3 days): 13% | stability of Mitomycin C in polymer [2]: poor stability
